Experimental data: ChEMBL document CHEMBL3351473, “Synthesis and biological evaluation of α-1-C-4'-arylbutyl-L-arabinoiminofuranoses, a new class of α-glucosidase inhibitors” (Bioorg Med Chem Lett, 2014)

Columns and labels:
[1] = target: T1, Sucrase-isomaltase, intestinal (Rattus norvegicus, UniProt P23739); assay: Inhibition of Wistar rat intestinal sucrase assessed as inhibition of D-glucose release after 30 mins by spectrophotometry
[2] = target: T1, Sucrase-isomaltase, intestinal; assay: Inhibition of Wistar rat intestinal isomaltase assessed as inhibition of D-glucose release after 30 mins by spectrophotometry
[3] = Inhibition of Wistar rat intestinal maltase assessed as inhibition of D-glucose release after 30 mins by spectrophotometry

T1 sequence (P23739 1-1013 limits assumed): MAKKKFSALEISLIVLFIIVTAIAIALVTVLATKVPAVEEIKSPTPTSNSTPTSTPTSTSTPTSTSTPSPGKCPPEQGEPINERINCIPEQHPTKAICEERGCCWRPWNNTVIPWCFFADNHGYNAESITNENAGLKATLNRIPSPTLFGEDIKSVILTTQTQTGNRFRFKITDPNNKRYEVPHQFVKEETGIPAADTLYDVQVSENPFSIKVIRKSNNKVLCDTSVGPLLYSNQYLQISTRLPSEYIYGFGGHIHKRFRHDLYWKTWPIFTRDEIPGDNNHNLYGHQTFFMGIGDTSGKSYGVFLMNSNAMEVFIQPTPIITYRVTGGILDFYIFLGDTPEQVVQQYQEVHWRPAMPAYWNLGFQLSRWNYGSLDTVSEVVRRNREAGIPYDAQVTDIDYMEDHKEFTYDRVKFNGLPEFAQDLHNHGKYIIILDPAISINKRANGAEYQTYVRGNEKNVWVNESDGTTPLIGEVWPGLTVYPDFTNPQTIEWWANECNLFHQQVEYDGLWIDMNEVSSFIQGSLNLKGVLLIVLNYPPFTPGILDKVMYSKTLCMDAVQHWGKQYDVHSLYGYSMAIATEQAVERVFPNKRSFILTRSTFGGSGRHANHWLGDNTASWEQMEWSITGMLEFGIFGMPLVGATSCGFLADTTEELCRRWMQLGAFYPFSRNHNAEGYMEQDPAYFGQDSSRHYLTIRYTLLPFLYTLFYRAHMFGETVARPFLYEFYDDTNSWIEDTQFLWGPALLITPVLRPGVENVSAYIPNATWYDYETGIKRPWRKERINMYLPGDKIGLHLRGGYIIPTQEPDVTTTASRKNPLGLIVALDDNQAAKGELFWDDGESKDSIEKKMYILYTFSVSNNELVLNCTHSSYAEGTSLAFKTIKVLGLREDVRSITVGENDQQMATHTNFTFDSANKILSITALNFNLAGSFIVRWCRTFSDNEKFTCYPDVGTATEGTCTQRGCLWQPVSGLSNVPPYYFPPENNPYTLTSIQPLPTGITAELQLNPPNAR
T1 sequence (P23739 1014-1841 limits assumed): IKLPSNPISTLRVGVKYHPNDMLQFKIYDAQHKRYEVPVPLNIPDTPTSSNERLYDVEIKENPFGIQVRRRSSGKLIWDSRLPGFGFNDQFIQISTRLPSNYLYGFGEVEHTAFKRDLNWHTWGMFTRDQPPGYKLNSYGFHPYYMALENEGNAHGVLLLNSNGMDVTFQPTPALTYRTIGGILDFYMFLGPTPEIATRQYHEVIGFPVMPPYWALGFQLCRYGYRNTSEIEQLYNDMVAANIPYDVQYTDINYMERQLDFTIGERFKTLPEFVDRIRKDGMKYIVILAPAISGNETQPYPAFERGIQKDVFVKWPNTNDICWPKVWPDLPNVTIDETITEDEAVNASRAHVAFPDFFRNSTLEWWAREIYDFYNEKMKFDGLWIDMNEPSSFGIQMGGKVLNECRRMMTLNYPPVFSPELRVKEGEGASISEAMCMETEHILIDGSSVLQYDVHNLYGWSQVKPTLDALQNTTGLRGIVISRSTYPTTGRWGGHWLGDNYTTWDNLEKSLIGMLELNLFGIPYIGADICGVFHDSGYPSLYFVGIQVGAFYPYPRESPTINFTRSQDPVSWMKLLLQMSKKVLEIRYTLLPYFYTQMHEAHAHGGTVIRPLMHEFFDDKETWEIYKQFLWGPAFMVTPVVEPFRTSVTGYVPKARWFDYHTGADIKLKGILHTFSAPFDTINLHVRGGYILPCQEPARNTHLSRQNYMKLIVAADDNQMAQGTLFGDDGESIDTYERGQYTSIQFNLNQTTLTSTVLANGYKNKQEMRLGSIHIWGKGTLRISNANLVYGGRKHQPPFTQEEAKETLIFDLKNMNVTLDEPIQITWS

Row | IC50 [1] [µM] | IC50 [2] [µM] | IC50 [3] [µM] | SMILES
1 | 0.17 | 3 |  | OC[C@@H]1N[C@@H](CCCCc2ccc(F)cc2)[C@H](O)[C@H]1O
2 | 0.13 | 1.8 |  | COc1ccc(CCCC[C@@H]2N[C@@H](CO)[C@H](O)[C@H]2O)cc1
3 | 0.045 | 0.63 |  | Cc1ccc(CCCC[C@@H]2N[C@@H](CO)[C@H](O)[C@H]2O)cc1
4 | 0.026 | 0.22 |  | OC[C@@H]1N[C@@H](CCCCc2cc(F)cc(F)c2)[C@H](O)[C@H]1O
5 |  |  | 0.22 | OC[C@@H]1N[C@@H](CCCCc2ccccc2)[C@H](O)[C@H]1O
6 | 0.11 | 6 |  | OC[C@@H]1N[C@@H](CCCCc2ccc(O)cc2)[C@H](O)[C@H]1O
